Series [1] has as its target Mitogen-activated protein kinase 9 (Homo sapiens, UniProt P45984). Kind of series: Inhibition of JNK2.
The target in series [2] is Mitogen-activated protein kinase 8 (Homo sapiens, UniProt P45983). Kind of series: Inhibition of JNK1.
In series [3] the target is c-Jun N-terminal kinase, JNK (Homo sapiens, UniProt P45983+P53779+P45984). Put plainly: Inhibition of cJun phosphorylation in HepG2 cells. It counts as functional, cell-based.
Series [4] can be described thus: AUC in rat at 5 mg/kg, po. The conditions noted are these: plasma. Details: dose 5 mg/kg, route oral. It counts as ADME, organism-based.
Series [5] in a line: Half life in rat at 5 mg/kg, po. It counts as ADME, organism-based. Details: dose 5 mg/kg, route oral. The conditions noted are these: in vivo.
Series [6] can be described thus: Half life in rat microsomes. It counts as ADME, Microsome. The conditions noted are these: liver microsomes. In general terms: Liver microsomes are vesicles of endoplasmic reticulum, rich in cytochrome P450 enzymes.
A short description of series [7]: Cmax in rat at 5 mg/kg, po. In kind it is ADME, organism-based. Details: dose 5 mg/kg, route oral. The conditions noted are these: in vivo.
Series [8] in a line: Oral bioavailability in rat at 5 mg/kg, po. In kind it is ADME, organism-based. Particulars: in vivo.
A short description of series [9]: Half life in mouse microsomes. In kind it is ADME, Microsome.
Series [10] is described as follows: Half life in human microsomes. In kind it is ADME, Microsome. The conditions noted are these: liver microsomes.
For series [11], the target named is Voltage-gated inwardly rectifying potassium channel KCNH2 (Homo sapiens, UniProt Q12809). Kind of series: Displacement of [3H]dofetilide from hERG. For orientation: Displacement assays read how much labelled ligand stays bound in the presence of the test substance.
Chain of Voltage-gated inwardly rectifying potassium channel KCNH2 (Q12809 whole entry): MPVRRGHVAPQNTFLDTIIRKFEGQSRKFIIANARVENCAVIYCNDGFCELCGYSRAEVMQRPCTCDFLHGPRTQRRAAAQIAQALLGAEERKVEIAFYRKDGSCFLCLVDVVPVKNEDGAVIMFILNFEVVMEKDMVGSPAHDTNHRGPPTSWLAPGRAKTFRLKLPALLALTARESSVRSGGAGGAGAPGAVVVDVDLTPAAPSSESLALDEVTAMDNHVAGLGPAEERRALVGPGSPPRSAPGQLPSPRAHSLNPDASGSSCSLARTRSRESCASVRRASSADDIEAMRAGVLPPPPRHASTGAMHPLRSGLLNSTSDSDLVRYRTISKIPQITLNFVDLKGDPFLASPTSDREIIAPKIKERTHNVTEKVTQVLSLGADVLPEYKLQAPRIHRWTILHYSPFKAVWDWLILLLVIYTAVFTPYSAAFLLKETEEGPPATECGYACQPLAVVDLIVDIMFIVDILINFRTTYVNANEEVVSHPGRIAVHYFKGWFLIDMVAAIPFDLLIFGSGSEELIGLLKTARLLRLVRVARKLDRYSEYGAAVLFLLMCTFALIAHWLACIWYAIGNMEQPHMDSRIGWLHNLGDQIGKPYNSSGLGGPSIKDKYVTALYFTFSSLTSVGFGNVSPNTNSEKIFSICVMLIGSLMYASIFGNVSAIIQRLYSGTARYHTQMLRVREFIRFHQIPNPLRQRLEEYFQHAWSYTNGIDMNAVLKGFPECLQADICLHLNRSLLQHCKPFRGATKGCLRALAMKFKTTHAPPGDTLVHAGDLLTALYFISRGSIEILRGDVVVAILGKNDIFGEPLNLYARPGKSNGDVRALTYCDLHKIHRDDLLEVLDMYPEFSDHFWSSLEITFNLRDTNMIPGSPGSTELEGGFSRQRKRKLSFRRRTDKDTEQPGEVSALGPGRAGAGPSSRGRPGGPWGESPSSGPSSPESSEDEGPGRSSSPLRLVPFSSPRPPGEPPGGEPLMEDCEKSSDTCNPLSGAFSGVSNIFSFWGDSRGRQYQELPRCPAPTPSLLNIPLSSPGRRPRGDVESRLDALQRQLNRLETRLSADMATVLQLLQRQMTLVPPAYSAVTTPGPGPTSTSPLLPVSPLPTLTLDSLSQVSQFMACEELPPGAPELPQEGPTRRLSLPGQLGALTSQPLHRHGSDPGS
Series [12] can be described thus: Inhibition of MAPKAPK. Details: species or system Homo sapiens.
The target in series [13] is T1, Calcium/calmodulin-dependent protein kinase type IV (Homo sapiens, UniProt Q16566).
T1 sequence (Q16566 whole entry): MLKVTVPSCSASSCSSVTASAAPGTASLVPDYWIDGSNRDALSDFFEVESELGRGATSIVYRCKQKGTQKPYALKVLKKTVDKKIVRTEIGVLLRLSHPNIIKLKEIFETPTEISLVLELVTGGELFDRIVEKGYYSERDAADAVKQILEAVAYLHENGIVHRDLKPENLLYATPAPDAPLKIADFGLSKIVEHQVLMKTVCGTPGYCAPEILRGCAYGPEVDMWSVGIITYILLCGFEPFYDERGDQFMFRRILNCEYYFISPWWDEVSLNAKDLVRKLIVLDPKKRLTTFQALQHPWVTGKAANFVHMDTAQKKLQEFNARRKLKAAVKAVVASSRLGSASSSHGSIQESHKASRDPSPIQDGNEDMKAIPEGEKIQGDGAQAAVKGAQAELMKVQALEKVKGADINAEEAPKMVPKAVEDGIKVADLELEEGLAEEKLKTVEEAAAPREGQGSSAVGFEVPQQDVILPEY
Put plainly: Inhibition of CaMK4.

Series [14] has as its target Mitogen-activated protein kinase 10 (Homo sapiens, UniProt P53779). Kind of series: Inhibition of JNK3.
Series [15] has as its target T2, Serine/threonine-protein kinase Sgk1 (Homo sapiens, UniProt O00141).
T2 sequence (O00141 whole entry): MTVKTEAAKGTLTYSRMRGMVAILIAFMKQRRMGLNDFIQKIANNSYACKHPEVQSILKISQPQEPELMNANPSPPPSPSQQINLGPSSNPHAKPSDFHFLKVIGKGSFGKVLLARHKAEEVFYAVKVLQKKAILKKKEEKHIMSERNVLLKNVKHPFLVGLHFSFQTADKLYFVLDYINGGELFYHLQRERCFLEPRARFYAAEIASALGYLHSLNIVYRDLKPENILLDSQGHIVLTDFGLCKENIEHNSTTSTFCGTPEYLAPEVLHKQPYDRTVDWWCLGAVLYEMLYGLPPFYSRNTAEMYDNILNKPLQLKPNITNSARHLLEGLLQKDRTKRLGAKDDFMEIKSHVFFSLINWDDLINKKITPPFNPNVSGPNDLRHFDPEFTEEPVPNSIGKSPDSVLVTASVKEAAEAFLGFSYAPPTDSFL
Kind of series: Inhibition of SGk.

Series [16] can be described thus: Inhibition of IGFR. Details: species or system Homo sapiens.
In the next series the target is Activated CDC42 kinase 1 (Homo sapiens, UniProt Q07912). Kind of series: Inhibition of CDC42.
Chain of Activated CDC42 kinase 1 (Q07912 whole entry): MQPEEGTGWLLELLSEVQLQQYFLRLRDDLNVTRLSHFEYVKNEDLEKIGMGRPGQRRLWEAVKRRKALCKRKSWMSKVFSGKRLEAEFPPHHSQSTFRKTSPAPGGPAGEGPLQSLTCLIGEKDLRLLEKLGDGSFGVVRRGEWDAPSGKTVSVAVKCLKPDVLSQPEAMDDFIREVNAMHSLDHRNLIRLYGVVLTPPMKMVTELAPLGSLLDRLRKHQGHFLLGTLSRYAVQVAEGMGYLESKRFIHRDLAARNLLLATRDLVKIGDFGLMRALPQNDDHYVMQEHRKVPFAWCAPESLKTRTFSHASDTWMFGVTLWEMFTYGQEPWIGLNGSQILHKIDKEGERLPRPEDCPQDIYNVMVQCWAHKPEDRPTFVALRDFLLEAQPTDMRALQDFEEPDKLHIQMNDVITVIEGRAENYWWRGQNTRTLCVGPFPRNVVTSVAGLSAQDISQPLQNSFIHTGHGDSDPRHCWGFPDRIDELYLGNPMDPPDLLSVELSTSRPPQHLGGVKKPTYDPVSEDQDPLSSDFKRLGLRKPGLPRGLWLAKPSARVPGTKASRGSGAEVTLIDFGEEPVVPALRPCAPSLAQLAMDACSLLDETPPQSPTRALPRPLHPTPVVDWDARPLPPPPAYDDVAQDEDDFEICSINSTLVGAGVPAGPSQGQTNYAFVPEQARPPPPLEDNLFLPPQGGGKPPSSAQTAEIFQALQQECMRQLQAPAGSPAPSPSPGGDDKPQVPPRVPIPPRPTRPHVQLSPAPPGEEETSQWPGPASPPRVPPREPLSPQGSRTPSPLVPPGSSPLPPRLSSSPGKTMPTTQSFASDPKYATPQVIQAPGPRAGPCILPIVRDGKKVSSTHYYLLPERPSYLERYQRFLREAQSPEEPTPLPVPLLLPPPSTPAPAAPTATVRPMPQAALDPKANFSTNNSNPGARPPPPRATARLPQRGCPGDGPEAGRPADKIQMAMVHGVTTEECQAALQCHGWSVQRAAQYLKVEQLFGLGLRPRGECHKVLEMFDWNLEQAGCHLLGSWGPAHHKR

pIC50, pKi: −log10 of the molar value.

Chain of Mitogen-activated protein kinase 9 (P45984 whole entry): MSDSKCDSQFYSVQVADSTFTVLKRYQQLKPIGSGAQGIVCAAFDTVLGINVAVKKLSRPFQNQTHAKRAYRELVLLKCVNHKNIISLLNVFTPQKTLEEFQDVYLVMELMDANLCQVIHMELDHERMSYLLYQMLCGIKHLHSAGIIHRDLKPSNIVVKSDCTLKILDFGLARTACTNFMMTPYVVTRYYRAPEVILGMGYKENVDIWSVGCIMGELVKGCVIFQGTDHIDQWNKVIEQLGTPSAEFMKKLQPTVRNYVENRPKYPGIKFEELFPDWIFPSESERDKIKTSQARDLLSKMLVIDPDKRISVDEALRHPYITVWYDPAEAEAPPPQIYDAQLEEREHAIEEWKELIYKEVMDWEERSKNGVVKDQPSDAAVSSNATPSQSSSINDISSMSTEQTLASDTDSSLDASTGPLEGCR
Chain of Mitogen-activated protein kinase 8 (P45983 whole entry): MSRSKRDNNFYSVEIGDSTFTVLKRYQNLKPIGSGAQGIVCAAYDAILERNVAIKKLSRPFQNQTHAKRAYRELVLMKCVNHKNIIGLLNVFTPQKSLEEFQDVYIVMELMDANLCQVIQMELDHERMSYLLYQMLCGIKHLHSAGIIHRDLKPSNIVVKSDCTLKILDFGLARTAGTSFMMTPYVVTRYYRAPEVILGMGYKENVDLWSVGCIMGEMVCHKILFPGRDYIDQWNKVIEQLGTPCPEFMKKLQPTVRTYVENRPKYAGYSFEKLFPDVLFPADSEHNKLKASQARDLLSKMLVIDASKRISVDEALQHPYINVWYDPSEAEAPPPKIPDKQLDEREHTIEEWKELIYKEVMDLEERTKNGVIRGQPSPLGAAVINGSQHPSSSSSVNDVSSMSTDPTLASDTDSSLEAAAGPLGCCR
Chain of Mitogen-activated protein kinase 10 (P53779 whole entry): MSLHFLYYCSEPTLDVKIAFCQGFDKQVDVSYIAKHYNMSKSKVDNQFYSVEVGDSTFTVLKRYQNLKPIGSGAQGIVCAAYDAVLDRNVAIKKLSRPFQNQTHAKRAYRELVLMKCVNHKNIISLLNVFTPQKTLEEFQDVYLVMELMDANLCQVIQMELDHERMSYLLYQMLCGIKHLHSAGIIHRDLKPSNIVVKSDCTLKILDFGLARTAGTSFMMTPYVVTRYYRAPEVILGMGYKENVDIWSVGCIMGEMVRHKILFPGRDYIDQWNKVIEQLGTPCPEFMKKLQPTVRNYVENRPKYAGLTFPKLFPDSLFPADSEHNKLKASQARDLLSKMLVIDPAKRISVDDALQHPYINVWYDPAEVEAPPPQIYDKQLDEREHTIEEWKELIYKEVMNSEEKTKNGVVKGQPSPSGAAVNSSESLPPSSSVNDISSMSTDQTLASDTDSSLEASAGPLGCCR

In general, pIC50 refers to the negative decadic logarithm of the IC50, by convention in mol/L. Read a low pIC50 as a high IC50. In general, IC50 refers to the point on the concentration scale where inhibition reaches its midpoint. Low readings indicate greater potency in that assay, high ones weaker potency in that assay. In the case of `CCOc1nc(C(=O)NCc2ccccc2)cc(N)c1C#N`, the pIC50 was 6.72 in series [1] and 6.57 in [2]. Besides, in series [3], the IC50 was found to be 1100 nM.

As for `CCOc1nc(C(=O)NCc2cc(OC)ccc2OC)cc(N)c1C#N`, the results for the pIC50 in series [1] and in series [2] were 6.92 and 7.15, respectively. The compound further returned a half-maximal inhibitory concentration (IC50) in [3] of 640 nM.

For the compound `CC(C)Oc1nc(C(=O)NCc2ccc(S(C)(=O)=O)cc2)cc(N)c1Cl`, the results for the pIC50 in series [1] and in series [2] were 7.17 and 7.12, respectively. The half-maximal inhibitory concentration (IC50) in [3] came out at 410 nM.

Regarding `CCOc1nc(C(=O)N(C)Cc2ccc(S(C)(=O)=O)cc2)cc(N)c1C#N`, the figures for the pIC50 in [1] and in series [2] were below 5.00 and 5.19, respectively. In [3], this compound came in with an IC50 above 10000 nM.

The AUC is the area under the concentration-time curve, a measure of exposure. High values mean high exposure, low ones low exposure. In general, half-life refers to the time in which the quantity being followed falls by half. Low values mean rapid decline, high ones slow decline. By Cmax is commonly meant the highest concentration seen after dosing. Take `CCOc1nc(C(=O)NCc2ccccc2S(N)(=O)=O)cc(N)c1C#N`: the area under the curve (AUC) in series [4] worked out at 4000 ng·h/mL. Further, the half-life in series [5] is 2.2 h; in series [6], above 1 h. This compound yielded a Cmax in series [7] of 1320 ng/mL. Moreover, the bioavailability in [8] was 54.7%. In series [2], this compound showed a pIC50 of 7.92.

In series [4], `CCOc1nc(C(=O)NCc2ccc(S(C)(=O)=O)cc2)cc(N)c1C#N` yielded an AUC of 6320 ng·h/mL. Moreover, the half-life is above 1 h in series [9], 3.4 h in [5], above 1 h in series [10] and above 1 h in [6]. Moreover, in series [7], the Cmax was 1020 ng/mL. For the same compound, the bioavailability in series [8] worked out at 38.8%. Further, the negative logarithm of the IC50 (pIC50) in series [11] is below 4.00.

In [2], `CCOc1nc(C(=O)NCc2cc(OC)ccc2OC)ccc1C#N` gave a pIC50 of 6.64. Besides, the IC50 in [3] came out at 2500 nM.

Compound `CCOc1nc(NCc2cc(OC)ccc2OC)cc(N)c1C#N` gave a pIC50 in series [2] below 5.00.

Regarding `CCOc1nc(C(=O)NCc2ccc(S(C)(=O)=O)cc2)ccc1C#N`, the pIC50 in [2] was 6.41. In series [3], this compound displayed an IC50 of 5800 nM.

Turning to `CCOc1nc(C(=O)NCc2ccc(-c3ccc(C(=O)O)cc3)nc2)cc(N)c1C#N`, the pIC50 was 7.96 in [1] and 8.40 in series [2]. In series [3], this compound had an IC50 above 10000 nM.

Broadly, the pKi is the Ki on a negative log10 scale, so that one unit is a factor of ten. `CCOc1nc(C(=O)NCc2ccc(S(C)(=O)=O)cc2)cc(N)c1Cl` came in with an AUC in series [4] of 15400 ng·h/mL. In addition, the pKi was below 5.08 in series [12]; below 5.07 in series [13]; below 5.03 in series [15]; below 6.00 in series [16]; below 5.02 on Activated CDC42 kinase 1. This compound also had a pIC50 in series [14] of 6.92. Also, the half-life in series [5] was 5.1 h; in series [6], above 1 h. Moreover, the Cmax in series [7] was found to be 1780 ng/mL. Further, the bioavailability in series [8] was found to be 124%.

Regarding `CCOc1nc(C(=O)NC)cc(N)c1C#N`, the pIC50 was 6.21 in [1] and 5.92 in series [2]. This compound also showed a pKi in series [2] of 6.40.

For the compound `CS(=O)(=O)c1ccc(CNC(=O)c2cc(N)c(C#N)c(Cl)n2)cc1`, the pIC50 in series [1] is 5.36; in series [2], 5.82.

The compound `CCOc1nc(C(=O)NCc2cccnc2)cc(N)c1C#N` yielded an AUC in series [4] of 3800 ng·h/mL. The half-life in series [9] is 0.0833 h; in series [5] it was 0.5 h. For the same compound, the peak level in series [7] (Cmax) was 2920 ng/mL. Besides, the bioavailability in series [8] is 32.7%.

Values taken from ChEMBL document CHEMBL1138045 (J Med Chem, 2006).
